Laboratory results as given in PubChem BioAssay AID330 (DTP/NCI, 2004).
Where “and” joins values, the source holds several entries; their conditions need not be identical. Identical values can stand only once. Toxic doses and inconclusive results are not listed.

Tested on: P388 leukemia ip, CD2F1 mice, survival T/C
Test: NCI In Vivo Anticancer Drug Screen. Data for tumor model P388 Leukemia (intraperitoneal) in CD2F1 (CDF1) mice
Settings: endpoint: median survival time, higher = longer survival
Outline: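 Mice carrying the transplanted tumor received test compound or vehicle. Survival was recorded in each group, and the value is the treated-group measurement divided by that of the vehicle-treated control group.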

[1] = dose: 50.0 mg/kg/injection, schedule: Q01DX005 (ip), vehicle: Klucel (hydroxypropylcellulose) (HPC)
[2] = dose: 100.0 mg/kg/injection, schedule: Q01DX005 (ip), vehicle: Klucel (hydroxypropylcellulose) (HPC)
[3] = dose: 200.0 mg/kg/injection, schedule: Q01DX005 (ip), vehicle: Klucel (hydroxypropylcellulose) (HPC)
[4] = dose: 50.0 mg/kg/injection, schedule: Q01DX009 (ip), vehicle: Klucel (hydroxypropylcellulose) (HPC)
[5] = dose: 100.0 mg/kg/injection, schedule: Q01DX009 (ip), vehicle: Klucel (hydroxypropylcellulose) (HPC)
[6] = dose: 200.0 mg/kg/injection, schedule: Q01DX009 (ip), vehicle: Klucel (hydroxypropylcellulose) (HPC)
[7] = dose: 60.0 mg/kg/injection, schedule: Q01DX005 (ip), vehicle: saline with Tween-80
[8] = dose: 120.0 mg/kg/injection, schedule: Q01DX005 (ip), vehicle: saline with Tween-80
[9] = dose: 240.0 mg/kg/injection, schedule: Q01DX005 (ip), vehicle: saline with Tween-80
[10] = dose: 50.0 mg/kg/injection, schedule: Q01DX009 (ip), vehicle: saline
[11] = dose: 100.0 mg/kg/injection, schedule: Q01DX009 (ip), vehicle: saline
[12] = dose: 200.0 mg/kg/injection, schedule: Q01DX009 (ip), vehicle: saline
[13] = dose: 6.25 mg/kg/injection, schedule: Q01DX005 (ip), vehicle: saline with Tween-80
[14] = dose: 12.5 mg/kg/injection, schedule: Q01DX005 (ip), vehicle: saline with Tween-80
[15] = dose: 50.0 mg/kg/injection, schedule: Q01DX005 (ip), vehicle: saline with Tween-80
[16] = dose: 100.0 mg/kg/injection, schedule: Q01DX005 (ip), vehicle: saline with Tween-80
[17] = dose: 200.0 mg/kg/injection, schedule: Q01DX005 (ip), vehicle: saline with Tween-80

CC1(C)Cc2c(nc3ccccc3c2C(N)=O)-c2ccccc21
T/C [1]: 88 % of control
T/C [2]: 88 % of control
T/C [3]: 88 % of control

CCn1c2ccccc2c2cc(N)c(N=Nc3ccc(N(C)C)cc3)cc21
T/C [4]: 113 % of control
T/C [5]: 105 % of control
T/C [6]: 103 % of control

Cc1cc(Cl)ccc1NC(=O)C(=O)C(C#N)c1c(Cl)cccc1Cl (stereo not drawn)
T/C (dose: 100.0 mg/kg/injection, schedule: Q04DX002 (ip), vehicle: saline with Tween-80): 101 % of control
T/C (dose: 200.0 mg/kg/injection, schedule: Q04DX002 (ip), vehicle: saline with Tween-80): 105 % of control
T/C (dose: 400.0 mg/kg/injection, schedule: Q04DX002 (ip), vehicle: saline with Tween-80): 100 % of control

CCOC(=O)C(=CC(CC)(C(=O)OCC)C(=O)OCC)C(=O)OCC
T/C (dose: 100.0 mg/kg/injection, schedule: Q04DX003 (ip), vehicle: saline with Tween-80): 110 % of control
T/C (dose: 200.0 mg/kg/injection, schedule: Q04DX003 (ip), vehicle: saline with Tween-80): 110 % of control
T/C (dose: 300.0 mg/kg/injection, schedule: Q04DX003 (ip), vehicle: saline): 109 % of control
T/C (dose: 450.0 mg/kg/injection, schedule: Q04DX003 (ip), vehicle: saline): 100 % of control
T/C (dose: 600.0 mg/kg/injection, schedule: Q04DX003 (ip), vehicle: saline): 109 % of control

C=C1C(=O)OC2C3CCC2C1C3 (stereo not drawn)
T/C (dose: 12.5 mg/kg/injection, schedule: Q04DX003 (ip), vehicle: saline with Tween-80): 101 % of control
T/C (dose: 25.0 mg/kg/injection, schedule: Q04DX003 (ip), vehicle: saline with Tween-80): 115 % of control
T/C (dose: 50.0 mg/kg/injection, schedule: Q04DX003 (ip), vehicle: saline with Tween-80): 100 % of control

c1cc2c(ccc3c4c([nH]c32)CCCC4)cn1
T/C (dose: 12.5 mg/kg/injection, schedule: Q01DX009 (ip), vehicle: saline with Tween-80): 101 % of control
T/C (dose: 25.0 mg/kg/injection, schedule: Q01DX009 (ip), vehicle: saline with Tween-80): 105 % of control
T/C (dose: 50.0 mg/kg/injection, schedule: Q01DX009 (ip), vehicle: saline with Tween-80): 99 % of control
T/C (dose: 100.0 mg/kg/injection, schedule: Q01DX009 (ip), vehicle: saline with Tween-80): 98 % of control

CCOC(=O)NN(C(=O)OCC)c1c(NC)n(C)c(=O)n(C)c1=O
T/C [4]: 100 % of control
T/C [5]: 106 % of control
T/C [6]: 89 % of control

Cn1c(NCCN2CCCCC2)c(C(=O)/C=C/c2ccccc2)c(=O)n(C)c1=O
T/C [1]: 104 % of control
T/C [2]: 107 % of control
T/C [3]: 103 % of control

CCOC(=O)N(C)N=NCCCl
T/C (dose: 7.5 mg/kg/injection, schedule: Q01DX005 (ip), vehicle: saline with Tween-80): 117 % of control
T/C (dose: 15.0 mg/kg/injection, schedule: Q01DX005 (ip), vehicle: saline with Tween-80): 118 % of control
T/C (dose: 30.0 mg/kg/injection, schedule: Q01DX005 (ip), vehicle: saline with Tween-80): 175 % of control
T/C [7]: 94 % of control

C=C1OC(=O)C(N)=C1C(C)=O
T/C [7]: 99 % of control
T/C [8]: 97 % of control
T/C [9]: 95 % of control

CC(=O)Nc1ccc(NN=O)cn1
T/C (dose: 3.12 mg/kg/injection, schedule: Q01DX009 (ip), vehicle: water): 113 % of control
T/C (dose: 6.25 mg/kg/injection, schedule: Q01DX009 (ip), vehicle: water): 106 % of control
T/C (dose: 12.5 mg/kg/injection, schedule: Q01DX009 (ip), vehicle: water): 110 % of control and 114 % of control
T/C (dose: 25.0 mg/kg/injection, schedule: Q01DX009 (ip), vehicle: water): 116 % of control

CN(C)Cc1cocc(CN(C)C)c1=O
T/C [10]: 100 % of control
T/C [11]: 98 % of control
T/C [12]: 103 % of control

CN1CC(O)C2=CC(=O)C(=O)C=C21 (stereo not drawn)
T/C (dose: 30.0 mg/kg/injection, schedule: Q01DX005 (ip), vehicle: saline): 117 % of control
T/C (dose: 60.0 mg/kg/injection, schedule: Q01DX005 (ip), vehicle: saline): 120 % of control
T/C (dose: 120.0 mg/kg/injection, schedule: Q01DX005 (ip), vehicle: saline): 119 % of control

CCOC(=O)C(Cc1c[nH]c2ccccc12)NC(=O)C1(O)C(O)C2(CC)C=CCN3CCC4(c5cc(C6(C(=O)OC)CC7CC(CC)CN(CCc8c6[nH]c6ccccc86)C7)c(OC)cc5N(C)C14)C32 (stereo not drawn)
T/C (dose: 2.0 mg/kg/injection, schedule: Q01DX001 (ip), vehicle: saline): 99 % of control
T/C (dose: 4.0 mg/kg/injection, schedule: Q01DX001 (ip), vehicle: saline): 118 % of control
T/C (dose: 16.0 mg/kg/injection, schedule: Q01DX001 (ip), vehicle: saline): 169 % of control
T/C (dose: 32.0 mg/kg/injection, schedule: Q01DX001 (ip), vehicle: saline): 179 % of control
T/C (dose: 64.0 mg/kg/injection, schedule: Q01DX001 (ip), vehicle: saline): 178 % of control

O=C(O)C1CCC(=O)N1Cc1ccccc1 (stereo not drawn)
T/C [4]: 89 % of control
T/C [5]: 100 % of control
T/C [6]: 107 % of control

CCC1OC2(C)C(O)C(/C=C/C=C/C=C/c3oc(=O)cc(OC)c3C)OC1(C)C2OC(C)=O (stereo not drawn)
T/C (dose: 0.5 mg/kg/injection, schedule: Q01DX009 (ip), vehicle: Klucel (hydroxypropylcellulose) (HPC)): 109 % of control
T/C (dose: 1.0 mg/kg/injection, schedule: Q01DX009 (ip), vehicle: Klucel (hydroxypropylcellulose) (HPC)): 105 % of control
T/C (dose: 2.0 mg/kg/injection, schedule: Q01DX009 (ip), vehicle: Klucel (hydroxypropylcellulose) (HPC)): 100 % of control

CC1CCC(C(=O)C(Cl)C(Cl)C2CCCCC2)CC1 (stereo not drawn)
T/C [1]: 92 % of control
T/C [2]: 92 % of control

C=C(CC(O)(C(F)(F)F)C(F)(F)F)CC(O)(C(F)(F)F)C(F)(F)F
T/C (dose: 3.13 mg/kg/injection, schedule: Q01DX005 (ip), vehicle: saline with Tween-80): 102 % of control
T/C [13]: 104 % of control
T/C (dose: 12.5 mg/kg/injection, schedule: Q01DX001 (ip), vehicle: saline with Tween-80): 99 % of control
T/C [14]: 107 % of control
T/C (dose: 25.0 mg/kg/injection, schedule: Q01DX001 (ip), vehicle: saline with Tween-80): 99 % of control

CCOc1ccc(NS(=O)(=O)c2ccc(F)cc2)cc1
T/C [7]: 99 % of control
T/C [8]: 88 % of control
T/C [9]: 95 % of control

COc1ccc2[nH]c(C(=O)N(C)C)cc2c1
T/C [15]: 100 % of control
T/C [16]: 104 % of control
T/C [17]: 101 % of control

Cc1cccc(NCc2ccncc2)n1
T/C [13]: 92 % of control
T/C [14]: 102 % of control
T/C (dose: 25.0 mg/kg/injection, schedule: Q01DX005 (ip), vehicle: saline with Tween-80): 100 % of control
T/C [15]: 100 % of control

ClC(Cl)c1nc2ccccc2[nH]1
T/C (dose: 6.25 mg/kg/injection, schedule: Q01DX009 (ip), vehicle: saline): 108 % of control
T/C (dose: 12.5 mg/kg/injection, schedule: Q01DX009 (ip), vehicle: saline): 100 % of control
T/C (dose: 25.0 mg/kg/injection, schedule: Q01DX009 (ip), vehicle: saline): 108 % of control
T/C [10]: 101 % of control

CC1=C(C)C2(C)c3ccccc3NC(=S)C12C (stereo not drawn)
T/C (dose: 100.0 mg/kg/injection, schedule: Q01DX001 (ip), vehicle: Klucel (hydroxypropylcellulose) (HPC)): 101 % of control
T/C (dose: 200.0 mg/kg/injection, schedule: Q01DX001 (ip), vehicle: Klucel (hydroxypropylcellulose) (HPC)): 105 % of control
T/C (dose: 400.0 mg/kg/injection, schedule: Q01DX001 (ip), vehicle: Klucel (hydroxypropylcellulose) (HPC)): 102 % of control

CC(=O)c1c(C(=O)O)n([O-])c2ccccc2[n+]1=O
T/C [15]: 97 % of control
T/C [16]: 94 % of control
T/C [17]: 112 % of control

O=P(CCCCP(=O)(c1ccccc1)c1ccccc1)(c1ccccc1)c1ccccc1.[Cl][Sn]([Cl])([c]1ccccc1)[c]1ccccc1
T/C (dose: 1.56 mg/kg/injection, schedule: Q01DX005 (ip), vehicle: Klucel (hydroxypropylcellulose) (HPC)): 114 % of control
T/C (dose: 3.12 mg/kg/injection, schedule: Q01DX005 (ip), vehicle: Klucel (hydroxypropylcellulose) (HPC)): 114 % of control
T/C (dose: 12.5 mg/kg/injection, schedule: Q01DX005 (ip), vehicle: Klucel (hydroxypropylcellulose) (HPC)): 115 % of control

CC(=O)Cc1c(-c2ccccc2)nc(=S)[nH]c1C
T/C [10]: 100 % of control and 97 % of control
T/C [11]: 91 % of control and 92 % of control
T/C [12]: 100 % of control and 94 % of control and 96 % of control
